Experiments:
Type in all cases: in vivo
soybean (Glycine max) = assay: Test C preemergence, plant response rating; details: Glycine max, pre-emergence, Preemergence
Summary of the method: (§1)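 Preemergence: seeds sown in loam–sand blend or silt loam and sprayed with test chemicals in a non-phytotoxic surfactant-containing solvent. Postemergence: potted plants at 2–18 cm (1–4-leaf stage) sprayed with the same formulation. After 13–15 d in greenhouse, visual rating versus controls on 0 (no effect) to 100 (complete control) scale.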

[1] = system: crabgrass, large (large crabgrass, Digitaria sanguinalis); assay: Test C preemergence, plant response rating; details: Digitaria sanguinalis, pre-emergence, Preemergence
Summary of the method: as §1

[2] = system: ryegrass, Italian (Italian ryegrass, Lolium multiflorum); assay: Test C preemergence, plant response rating; details: Lolium multiflorum, pre-emergence, Preemergence
Summary of the method: as §1

[3] = system: oilseed rape (Brassica napus); assay: Test C preemergence, plant response rating; details: Brassica napus, pre-emergence, Preemergence
Summary of the method: as §1

corn (Zea mays) = assay: Test C preemergence, plant response rating; details: Zea mays, pre-emergence, Preemergence
Summary of the method: as §1

[4] = system: foxtail, giant (giant foxtail, Setaria faberii); assay: Test C preemergence, plant response rating; details: Setaria faberi, pre-emergence, Preemergence
Summary of the method: as §1

[5] = system: ragweed (common ragweed, Ambrosia elatior); assay: Test C preemergence, plant response rating; details: Ambrosia artemisiifolia, pre-emergence, Preemergence
Summary of the method: as §1

[6] = system: blackgrass (Alopecurus myosuroides); assay: Test C preemergence, plant response rating; details: Alopecurus myosuroides, pre-emergence, Preemergence
Summary of the method: as §1

[7] = system: sedge, umbrella (small-flower umbrella sedge, Cyperus difformis); assay: Test B flooded paddy test, plant response rating; details: Cyperus difformis, 312 h; 250 g ai/ha; Flood; scale of 0 to 100 where 0 is no effect and 100 is complete control; 13 to 15 days
Summary of the method: (§2)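 Test compounds are applied straight into paddy water held 3 cm above the soil surface, with that flood maintained for the whole test. After 13 to 15 days in the greenhouse, each species is scored visually relative to controls.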

[8] = system: barnyardgrass (Echinochloa crus-galli); assay: Test B flooded paddy test, plant response rating; details: Echinochloa crus-galli, 312 h; 250 g ai/ha; Flood; scale of 0 to 100 where 0 is no effect and 100 is complete control; 13 to 15 days
Summary of the method: as §2

rice (Oryza sativa) = assay: Test B flooded paddy test, plant response rating; details: Oryza sativa, 312 h; 250 g ai/ha; Flood; scale of 0 to 100 where 0 is no effect and 100 is complete control; 13 to 15 days
Summary of the method: as §2

[9] = system: ducksalad (Heteranthera limosa); assay: Test B flooded paddy test, plant response rating; details: Heteranthera limosa, 312 h; 250 g ai/ha; Flood; scale of 0 to 100 where 0 is no effect and 100 is complete control; 13 to 15 days
Summary of the method: as §2

[10] = system: pigweed (Amaranthus retroflexus); assay: Test A preemergence, visual injury rating; details: Amaranthus retroflexus, pre-emergence, 240 h, 0 to 100 scale (0 no effect, 100 complete control), read-out: Pigweed plant response rating
Summary of the method: (§3)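 Injury scores run from 0, no effect, to 100, complete control, judged by eye against untreated plants roughly 10 days after treatment. Chemicals carried a surfactant in a non-phytotoxic solvent and went onto loam–sand soil preemergence or onto one- to two-leaf seedlings postemergence.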

kochia (Kochia scoparia) = assay: Test A preemergence, visual injury rating; details: Bassia scoparia, pre-emergence, 240 h, 0 to 100 scale (0 no effect, 100 complete control), read-out: Kochia plant response rating
Summary of the method: as §3

[11] = system: giant foxtail (Setaria faberii); assay: Test A preemergence, visual injury rating; details: Setaria faberi, pre-emergence, 240 h, 0 to 100 scale (0 no effect, 100 complete control), read-out: Foxtail, Giant plant response rating
Summary of the method: as §3

[12] = system: barnyardgrass (Echinochloa crus-galli); assay: Test A preemergence, visual injury rating; details: Echinochloa crus-galli, pre-emergence, 240 h, 0 to 100 scale (0 no effect, 100 complete control), read-out: Barnyardgrass plant response rating
Summary of the method: as §3

[13] = system: ragweed (common ragweed, Ambrosia elatior); assay: Test A preemergence, visual injury rating; details: Ambrosia artemisiifolia, pre-emergence, 240 h, 0 to 100 scale (0 no effect, 100 complete control), read-out: Ragweed plant response rating
Summary of the method: as §3

[14] = system: Italian ryegrass (Lolium multiflorum); assay: Test A preemergence, visual injury rating; details: Lolium multiflorum, pre-emergence, 240 h, 0 to 100 scale (0 no effect, 100 complete control), read-out: Ryegrass, Italian plant response rating
Summary of the method: as §3

SMILES: O=C(OCCCC(F)(F)F)c1c(Br)cccc1Oc1ncc(Cl)cn1 [Compound 20, 4,4,4-trifluorobutyl 2-bromo-6-[(5-chloro-2-pyrimidinyl)oxy]benzoate]
- plant injury at 125 g/ha (soybean (Glycine max); 125 g ai/ha, scale of 0 to 100): 10%
- plant injury at 16 g/ha (soybean (Glycine max); 16 g ai/ha, scale 0 to 100): 0%
- plant injury at 31 g/ha (soybean (Glycine max); 31 g ai/ha, scale 0 to 100): 0%
- plant injury at 62 g/ha (soybean (Glycine max); 62 g ai/ha, scale 0 to 100): 0%
- pest or weed control at 62 g/ha ([1]; 62 g ai/ha, scale of 0 to 100): 98%
- pest or weed control at 125 g/ha ([1]; 125 g ai/ha, scale of 0 to 100): 100%
- pest or weed control at 16 g/ha ([1]; 16 g ai/ha, scale 0 to 100): 5%
- pest or weed control at 31 g/ha ([1]; 31 g ai/ha, scale 0 to 100): 50%
- pest or weed control at 125 g/ha ([2]; 125 g ai/ha, scale of 0 to 100): 70%
- pest or weed control at 16 g/ha ([2]; 16 g ai/ha, scale 0 to 100): 0%
- pest or weed control at 31 g/ha ([2]; 31 g ai/ha, scale 0 to 100): 0%
- pest or weed control at 62 g/ha ([2]; 62 g ai/ha, scale 0 to 100): 30%
- plant injury at 125 g/ha ([3]; 125 g ai/ha, scale of 0 to 100): 50%
- plant injury at 16 g/ha ([3]; 16 g ai/ha, scale 0 to 100): 0%
- plant injury at 31 g/ha ([3]; 31 g ai/ha, scale 0 to 100): 0%
- plant injury at 62 g/ha ([3]; 62 g ai/ha, scale 0 to 100): 50%
- Corn plant response rating (crop injury, 0 = no effect, 100 = complete kill) at 62 g/ha (corn (Zea mays); 62 g ai/ha, scale of 0 to 100): 0%
- Corn plant response rating (crop injury, 0 = no effect, 100 = complete kill) at 125 g/ha (corn (Zea mays); 125 g ai/ha, scale of 0 to 100): 30%
- Corn plant response rating (crop injury, 0 = no effect, 100 = complete kill) at 16 g/ha (corn (Zea mays); 16 g ai/ha, scale 0 to 100): 0%
- Corn plant response rating (crop injury, 0 = no effect, 100 = complete kill) at 31 g/ha (corn (Zea mays); 31 g ai/ha, scale 0 to 100): 0%
- pest or weed control at 62 g/ha ([4]; 62 g ai/ha, scale of 0 to 100): 90%
- pest or weed control at 125 g/ha ([4]; 125 g ai/ha, scale of 0 to 100): 100%
- pest or weed control at 16 g/ha ([4]; 16 g ai/ha, scale 0 to 100): 35%
- pest or weed control at 31 g/ha ([4]; 31 g ai/ha, scale 0 to 100): 50%
- pest or weed control at 125 g/ha ([5]; 125 g ai/ha, scale of 0 to 100): 0%
- pest or weed control at 16 g/ha ([5]; 16 g ai/ha, scale 0 to 100): 0%
- pest or weed control at 31 g/ha ([5]; 31 g ai/ha, scale 0 to 100): 0%
- pest or weed control at 62 g/ha ([5]; 62 g ai/ha, scale 0 to 100): 0%
- pest or weed control at 62 g/ha ([6]; 62 g ai/ha, scale of 0 to 100): 85%
- pest or weed control at 125 g/ha ([6]; 125 g ai/ha, scale of 0 to 100): 100%
- pest or weed control at 16 g/ha ([6]; 16 g ai/ha, scale 0 to 100): 0%
- pest or weed control at 31 g/ha ([6]; 31 g ai/ha, scale 0 to 100): 40%
- pest or weed control at 250 g/ha [7]: 40%
- pest or weed control at 250 g/ha [8]: 0%
- plant injury at 250 g/ha (rice (Oryza sativa)): 0%
- pest or weed control at 250 g/ha [9]: 30%
- pest or weed control at 125 g/ha ([10]; 125 g ai/ha): 100%
- pest or weed control at 500 g/ha ([10]; 500 g ai/ha): 100%
- pest or weed control at 125 g/ha (kochia (Kochia scoparia); 125 g ai/ha): 30%
- pest or weed control at 500 g/ha (kochia (Kochia scoparia); 500 g ai/ha): 100%
- pest or weed control at 125 g/ha ([11]; 125 g ai/ha): 100%
- pest or weed control at 500 g/ha ([11]; 500 g ai/ha): 100%
- pest or weed control at 125 g/ha ([12]; 125 g ai/ha): 100%
- pest or weed control at 500 g/ha ([12]; 500 g ai/ha): 100%
- pest or weed control at 125 g/ha ([13]; 125 g ai/ha): 0%
- pest or weed control at 500 g/ha ([13]; 500 g ai/ha): 0%
- pest or weed control at 125 g/ha ([14]; 125 g ai/ha): 30%
- pest or weed control at 500 g/ha ([14]; 500 g ai/ha): 90%

Source: patent US11053204B2, “Pyrimidinyloxy benzene derivatives as herbicides” (FMC Corporation, priority 2015, dated 2021)
